PMC9738927, “A Newly Identified Monoterpenoid-Based Small Molecule Able to Support the Survival of Primary Cultured Dopamine Neurons and Alleviate MPTP-Induced Toxicity In Vivo” (Molecules, 2022)

Legend:
[1] = tested on: MPP^+-treated primary midbrain dopamine neurons; assay: Survival of MPP+-challenged cultured dopamine neurons (TH-positive cell count); assay type: cell-based, mouse
Procedure: We developed a compound library containing 20 diol derivatives and screened them on cultured primary DA neurons (Supplementary Materials, Table S1). Compounds were taken at a dose of 0.1 and 1 μM (based on effective doses for the epoxydiol). Based on the screening results, we selected four compounds and tested them in a naïve and MPP^+-treated (1-methyl-4-phenylpyridinium (MPP^+), the neurotoxic metabolite of MPTP) DA culture at 1, 10, and 100 nM to select the compound with the lowest effective dose.
The survival of cultured mouse DA neurons was assessed as described before. Briefly, naïve or MPP^+ (dopaminergic selective neurotoxin)-challenged embryonic midbrain neurons were cultured in the presence or absence of a diol-like compound. The number of survived DA neurons was estimated after immunocytochemical staining with antibodies recognizing the key enzyme of dopamine synthesis—tyrosine hydroxylase.

[2] = tested on: MPTP-treated mice; assay: Open field test in the acute MPTP mouse model of PD; assay type: in vivo
Procedure: MPTP was injected intraperitoneally into mice of C57Bl/6 line every 2 h in 8 h period in one day in a dose of 20 mg/kg for a total of four doses as described before, and one additional dose of MPTP was injected on the 7th day. The studied compound PA96 was dissolved in saline containing 0.5% Tween 80 just before use. PA96 in a dose of 1 and 10 mg/kg or VEH was administrated per os 24 h after the last injection of MPTP. Then, PA96 or VEH was injected for 14 days in a 5-day-per-week regime for a total of […].
The effectiveness of the studied medications was evaluated according to their ability to reduce the symptoms of hypokinesia induced by MPTP on days 1, 7, and 14 of the experiment. Hypokinesia caused by neurotoxin administration was evaluated with the “open field” test performed for 2 min using Tru Scan (U.S.) 2 h after the administration of the studied compound, registering the main markers of the locomotor and exploratory activities: time of locomotor activity (s) and movement distance (cm).

[3] = tested on: MPTP-treated mice; assay: Coat hanger test in the acute MPTP mouse model of PD; assay type: in vivo, C57Bl/6 male mice
[4] = tested on: haloperidol-induced catalepsy; assay: Haloperidol-induced catalepsy, parallel bars test; assay type: in vivo, male Wistar rats; settings: 1, 10, 20 mg/kg per os, haloperidol 1.5 mg/kg i.p.
Procedure: Neuroleptic-induced catalepsy has long been used as an animal model for screening drugs for parkinsonism, as described before. Adult male Wistar rats were divided into four groups, each containing six animals. Group 1 received haloperidol 1.5 mg/kg in normal saline and served as the cataleptic control without any drug treatment. The studied compound PA96 was dissolved in saline containing 0.5% Tween 80 just before use. Groups 2, 3, and 4 received PA-96 in a dose of 1, 10, or 20 mg/kg per os accordingly; 10 min after the PA96 administration, catalepsy was induced by the intraperitoneal administration of haloperidol in a dose of 1.5 mg/kg body weight in normal saline. All the behavioral studies were performed at room temperature in a calm room without external interference. The severity of catalepsy was measured 30, 60, 120, 180, and 240 min after haloperidol administration using the method of parallel bars. The fore and hind limbs of a rat were placed on parallel bars (walls) to ensure that the animal’s back was straight, and the time spent by the animal in an immobilized state was recorded. The general duration of catalepsy and the percentage of cataleptic animals in the group were evaluated.

[5] = tested on: MPTP-lesioned C57BL/6 mice; assay: DA and DOPAC levels in midbrain and striatum by HPLC-ED after MPTP lesion; assay type: in vivo
Procedure: Neurochemical analyses via HPLC-ED were conducted as described before. Microdissected samples of the striatum (ST) and midbrain were homogenized in 300 and 400 µL of cold 0.6 M HClO4, respectively, using a motor-driven grinder (Z359971, Sigma-Aldrich, USA) and the homogenate was spun for 15 min at 12,000 rpm (+4 °C). The pellet was diluted in 1 mL of 0.1 M NaCl and used for protein quantitation by Bradford (Bio Rad, USA) according to the manufacturer’s protocol. The clear supernatant was diluted twice with pure water and used for assay of DA and […] (DOPAC) by HPLC on Luna C18(2) column (5 μm particle size, L × I.D. 75 × 4.6 mm, Phenomenex, Torrance, CA, USA) with electrochemical detection (750 mV, DECADE II™ Electrochemical Detector; Antec, The Netherlands). The standard mixes containing 1, 2, and 3 ng of DA and DOPAC were repeatedly assayed throughout the entire procedure and used to plot the calibration curves for each substance. The areas of peaks were estimated using LabSolution LG/GC software version 5.54 (Shimadzu Corporation, Japan) and calibrated against the calibrated curves for corresponding standards. The contents of DA and DOPAC were expressed nanogram (ng) per milligram (mg) of protein assayed by Bradford.

[6] = tested on: naïve C57Bl/6 mice; assay: Open field test in naïve mice; assay type: in vivo, C57Bl/6 male mice; settings: 1, 10, 20 mg/kg once per os, 1 h after dosing
Procedure: The studied agent in a dose of 1 mg/kg, 10 mg/kg, and 20 mg/kg or saline was administered once per os in a water-Tween 80 solution to 8 mice per group of C57Bl/6 mice. The main markers of the locomotor activity movement distance (cm) and duration of locomotor activity (s) were registered with the open field test performed for 2 min using Tru Scan (USA), 1 h after the administration of the studied agent.

C=C(C)[C@@H]1CC=C(C)[C@@H](Sc2nc[nH]n2)[C@@H]1O [PA96, (1R,2R,6S)-2-(1H-1,2,4-triazol-3-ylthio)-3-methyl-6-(prop-1-en-2-yl)cyclohex-3-enol]
number of TH-positive neurons relative to VEH-treated wells ([1]; MPP+ and 1 nM, p = 0.03): 2.4 fold | inhibition at 0.1 µM ([1]; Mus musculus, Neuron, 100 nM, compared to VEH-treated wells, read-out: Support effect / inhibition, MPP+-treated dopamine neurons, 100 nM): 0% | tolerability of repeated dosing ([2]; 1 mg/kg and 10 mg/kg administered for 14 days): well tolerated | duration of locomotor activity in open field ([2]; MPTP-treated mice, 1 mg/kg, 24 h time point, p = 0.1328 vs VEH): on VEH level | movement distance in open field ([2]; MPTP-treated mice, 1 and 10 mg/kg per os): did not influence | antiparkinsonian activity in vivo (effective dose) ([3]; MPTP mouse model, per os): 1 mg/kg | coat hanger score ([3]; MPTP-treated mice, 1 mg/kg, 60 s time point, MPTP 3.6 ± 1.0, p = 0.0324): 6.7 ± 0.2 | increase of movement time in coat hanger test ([3]; MPTP-treated mice, 1 mg/kg, vs MPTP): 40% | coat hanger score ([3]; MPTP-treated mice, 10 mg/kg, p = 0.0622): trend toward increasing the score | catalepsy time [4]: significantly decreased | percentage of cataleptic animals [4]: significantly decreased | MPTP-induced reduction in DA level in the midbrain [5]: tended to alleviate | DA and DOPAC concentrations in ST or midbrain ([5]; 10 mg/kg): did not affect | locomotor activity of naive animals (movement distance, duration) [6]: did not activate
